# Several values for one entry are separate records, joined by “and”; a condition that tells them apart may be missing. Equal values may be shown once.
# Key:
# [1] = Determination of nanoparticle (lipoplex) size by dynamic light scattering; format: physicochemical; conditions: ratio 3:24 (w:w); for Conformity (C)/ Non-conformity (NC) / Mean Diameter (nm): complexes with pDNA; for Mean Diameter (nm): dynamic light scattering at 25°C; for Mean Diameter (nm) / PDI: triplicate measurements; for PDI: polydispersity index of complexes with pDNA, 25°C
# Experimental: • 1. Preparative HPLC Method: Unless otherwise indicated, the compounds described herein were purified by RP-MPLC ARMEN® Spot Flash Liquid Chromatography (ARMEN Instrument, Saint Ave, France) on a preparative column (SVF D26) packed with 25-40 µm C18 resin (Merck chimie SAS), by applying a linear gradient of 0-10% MeCN in NH4OAc (10 mM) solution (pH = 9) over 60 min at a 15 mL/min flow rate. The purification was monitored at 254 nm. Suitable fractions were pooled and lyophilised. • 2. Proton NMR Spectra: Unless otherwise indicated, all ^1H NMR spectra were run on a Bruker series 300 MHz instrument. Where so characterized, all observed protons are reported as parts-per-million (ppm) downfield from tetramethylsilane (TMS) or other internal reference in the appropriate solvent indicated. NMR spectra were recorded on a Brucker 300 spectrometer. For ^1H (300 MHz) spectra δ values were referenced to CDCI3-d1 (7.26 ppm), DMSO- d6 (2.50 ppm), D2O-d2 (4.79 ppm) or MeOD-d4 (3.31 ppm). The peak patterns are indicated as follows: s: singlet, sl: large singlet, d: doublet, t: triplet, q: quartet, m: multiplet. • 3. Mass Spectra (MS): Analyses were run on an Agilent Model 6130 quadrupole MS. Unless otherwise indicated, all mass spectral data for starting materials, intermediates and/or exemplary compounds are reported as mass/charge (m/z), having an (M+H)^+ molecular ion. The molecular ion reported was obtained by electrospray detection method (commonly referred to as an ESI MS). Compounds having an isotopic atom, such as bromine and the like, are generally reported according to the detected isotopic pattern, as appreciated by those skilled in the art. • 4. Particle size: Particle size was determined using a Malvern Nanosizer (Malvern, Worcestershire, UK) and Malvern ZETASIZER.RTM. (Malvern, Worcestershire, UK). • 5. Naming Convention The compounds disclosed and described herein have been named using the naming convention provided with Chem-Draw Ultra 11.0 software, available in Chem. Office. In some instances, compounds were named with the term "spermine" inserted where appropriate. For example, where the spermine is substituted with Boc, "N1,N5,N10-TriBoc-spermine" is added to the Chem-Draw nomenclature in the appropriate place. Chem-Draw utilizes the ISIS Draw software compound naming convention, as appreciated by those skilled in the art.
# For pDNA:TLR7-TLR2 polyamine molecules complexes, a ratio pDNA:TLR7-TLR2 polyamine molecules of 3:24 (w:w) was prepared in serum-free culture medium or in 5% glucose. The TLR7-TLR2 conjugated compound of interest was prediluted in serum-free culture medium or in 5% glucose and incubated for 5 minutes at room temperature, prior to the addition of an endotoxin-free, salt-free preparation of pDNA. In these experiments, the pBsr2pCpGLacZh plasmid was used in the pDNA:TLR7-TLR2 polyamine molecule complexes. The pDNA:TLR7-TLR2 polyamine molecule mixtures were incubated at room temperature for 30 minutes to allow the formation of the complex. The control used in these experiments was the cationic lipid transfection agent LyoVec™ (InvivoGen) prepared in a similar manner.
# In order to confirm that TLR7-TLR2 polyamine molecules complex DNA, lipoplex size was determined. The physical characterization of complex was achieved by dynamic light scattering using the analytical equipment for laser diffraction Zetasizer Nano-ZS (Malvern). pDNA:TLR7-TLR2 polyamine molecule complexes were prepared as described above. Subsequently, 50µl of pDNA: TLR7-TLR2 polyamine molecule complexes were placed into a disposable sizing cuvette and measurements were made under conditions defined according to manufacturer's instructions. The measurements were made at 25°C in triplicate and a size distribution report was obtained. […]
# HEK293 cells = assay: Cell transfection with SEAP plasmid, HEK293; format: cell-based, human; conditions: Figure 5A; in complex with pVitro14 LGFP SEAP plasmid, 48 hours, SEAP reporter gene expression
# Experimental: (§1) The TLR7-TLR2 molecules were tested for their ability as polyamine molecules to transport plasmid DNA (pDNA) into cells. The pVitro14 LGFP SEAP plasmid (InvivoGen) was complexed to TLR7-TLR2 polyamine molecules and to the control cationic lipid transfection agent, LyoVec™ (InvivoGen). The human HEK293 (ATCC, CRL-1573) and mouse B16-F1 melanoma (ATCC, CRL-6323) cell lines were seeded at a density of 50 000 cells/well and 20 000 cells/well respectively, in the absence or presence of different volumes of the plasmid encoding for the SEAP protein in complex with TLR7-TLR2 polyamine molecules for 48 hours at 37°C and 10% CO2. Transfection efficiency was assessed by measuring SEAP reporter gene expression: 20 µl of supernatant was sampled and mixed with 180 µl of QUANTI-Blue™ Detection (InvivoGen). In the presence of alkaline phosphatase SEAP, the color of QUANTI-Blue™ changes from pink to purple/blue. The intensity of the blue hue reflects the activity of SEAP. The levels of SEAP secretion were determined quantitatively by reading the OD at 620-655 nm using a spectrophotometer, iMark™ Microplate Reader (BIO-RAD).
# B16-F1 cells = assay: Cell transfection with SEAP plasmid, B16-F1; format: cell-based, mouse; conditions: Figure 5B; in complex with pVitro14 LGFP SEAP plasmid, 48 hours, SEAP reporter gene expression
# Experimental: as §1
# B16-F1 tumor = assay: Mouse B16-F1 tumor model, molecule alone; format: in vivo, C57BL/6 mice; conditions: intra-tumoral, 3 injections
# Experimental: Measurements were performed under gas anesthesia.
# The second group received intra-tumoral injections of CL413 molecule alone (a TLR7-TLR2 Pam2CSK4-based molecule). Third and forth groups received intra-tumoral injections of the TLR2 ligand, Pam2CSK4 alone, and the TLR7 ligand alone, respectively. A fifth group received a combined treatment of Pam2CSK4 and TLR7 ligand, in solution at the equivalent molecule quantity of the respective TLR2 and TLR7 moieties in CL413 (in 100µl Bionolyte G5® with Pluronic® F-68 2%) for a total of 3 injections.
SMILES,Conformity (C)/ Non-conformity (NC) [1],Mean Diameter (nm) [1],PDI [1],ability to transfect HEK293 cells (HEK293 cells),ability to transfect B16-F1 cells (B16-F1 cells),"tumor volume (B16-F1 tumor; Figure 8A, by day 23, compared to Pam2CSK4 alone, TLR7 ligand alone and vehicle control)","mice still alive (survival) (B16-F1 tumor; Figure 8B, by day 42) [%]"
"CCCCCCCCCCCCCCCC(=O)OCC(CSC[C@@H](N)C(=O)N[C@@H](CO)C(=O)N[C@@H](CCCCN)C(=O)N[C@@H](CCCCN)C(=O)N[C@@H](CCCCN)C(=O)N[C@H](CCCCN)C(=O)Nc1ccc(Cn2c(O)nc3c(N)nc(NCCCC)nc32)cc1)OC(=O)CCCCCCCCCCCCCCC (stereo in doubt) [CL413, (6S,9S,12S,15S,18S,21R)-6,25-diamino-21-(4-((6-amino-2-(butylamino)-8-hydroxy-9H-purin-9-yl)methyl)phenylcarbamoyl)-12,15,18-tris(4-aminobutyl)-9-(hydroxylmethyl)-7,10, 13,16,19-pentaoxo-4-thia-8,11,14,17,20-pentaazapentacosane-1,2-diyl dipalmitate]",C (ranged between 140 and 200 nm in diameter were considered to show conformity),"140,1 nm and 140,2 nm and 139,1 nm","0,178 and 0,187 and 0,229",lack the ability to transfect cells,lack the ability to transfect cells,no increase in tumor volume,100
"CCCCCCCCCCCCCCCC(=O)OCC(CSC[C@H](N)C(=O)N[C@@H](CO)C(=O)N[C@@H](CCCCNC(=O)c1ccc(Cn2c(O)nc3c(N)nc(NCCCC)nc32)cc1)C(=O)N[C@@H](CCCCN)C(=O)N[C@@H](CCCCN)C(=O)N[C@@H](CCCCN)C(=O)O)OC(=O)CCCCCCCCCCCCCCC (stereo partly drawn) [CL533, (2S,5S,8S,11S,14S,17R)-17-amino-11-(4-(4-((6-amino-2-(butylamino)-8-hydroxy-9H-purin-9-yl)methyl)benzamido)butyl)-2,5,8-tris(4-aminobutyl)-14-(hydroxylmethyl)-4,7,10,13,16,24-hexaoxo-21-(palmitoyloxy)-23-oxa-19-thia-3,6,9,12,15-pentaazanonatria contan-1-oic acid]",C (ranged between 140 and 200 nm in diameter were considered to show conformity),"140,4 nm and 149,8 nm and 141,5 nm","0,195 and 0,198 and 0,185",–,–,–,–
"CCCCCCCCCCCCCCCC(=O)N[C@@H](CSCC(COC(=O)CCCCCCCCCCCCCCC)OC(=O)CCCCCCCCCCCCCCC)C(=O)N[C@@H](CO)C(=O)N[C@@H](CCCCN)C(=O)N[C@@H](CCCCN)C(=O)N[C@@H](CCCCNC(=O)c1ccc(Cn2c(O)nc3c(N)nc(NCCCC)nc32)cc1)C(=O)N[C@@H](CCCCN)C(=O)O (stereo partly drawn) [CL535, (2S,5S,8S,11S,14S,17R)-5-(4-(4-((6-amino-2-(butylamino)-8-hydroxy-9H-purin-9-yl)methyl)benzamido)butyl)-2,8,11-tris(4-aminobutyl)-14-(hydroxymethyl)-4,7,10, 13,16,24-hexaoxo-17-palmitamido-21-(palmitoyloxy)-23-oxa-19-thia-3,6,9,12,15-pentaazanonatriacontan-1-oic acid]",NC (larger sizes were considered to show aggregates or non-conformity),"229,5 nm and 232,3 nm and 226,8 nm","0,351 and 0,336 and 0,396",–,–,–,–
"CCCCCCCCCCCCCCCC(=O)N[C@@H](CSCC(COC(=O)CCCCCCCCCCCCCCC)OC(=O)CCCCCCCCCCCCCCC)C(=O)N[C@@H](CO)C(=O)N[C@@H](CCCCN)C(=O)N[C@@H](CCCCN)C(=O)N[C@@H](CCCCN)C(=O)N[C@@H](CCCCN)C(=O)Nc1ccc(Cn2c(O)nc3c(N)nc(NCCCC)nc32)cc1 (stereo partly drawn) [CL534, ((6R,9S,12S,15S,18S,21S)-25-amino-21-(4-((6-amino-2-(butylamino)-8-hydroxy-9H-purin-9-yl)methyl)phenylcarbamoyl)-12,15,18-tris(4-aminobutyl)-9-(hydroxylmethyl)-7,10,13,16,19-pentaoxo-6-palmitamido-4-thia-8,11,14,17,20-pentaazapentacosane-1,2-diyl dipalmitate]",C (ranged between 140 and 200 nm in diameter were considered to show conformity),"165,5 nm and 187,1 nm and 182,3 nm","0,352 and 0,394 and 0,354",lack the ability to transfect cells,lack the ability to transfect cells,–,–
